The source of these data is patent US9201014B2, “Development of photostable near-IR cyanine dyes for in vivo imaging” (National University of Singapore, priority 2010, dated 2015).

Holding throughout (assay type): physicochemical
A short description of series [1]: Absorbance and fluorescence maximum wavelengths and quantum yields of the CyNA library. The method, boiled down: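 Absorption and emission maxima and quantum yields of the 80-member amine-derivatized CyNA library were measured on a plate spectrophotometer.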
Series [2] in a line: Primary screening of photostability of the CyNA library (time-course fluorescence, 8 h). The settings on record: 10 μM in HEPES 100 mM pH 7.4, 2% DMSO. The method, boiled down:
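CyNA dyes at 10 μM in 100 mM HEPES pH 7.4 with 2% DMSO irradiated by xenon lamp for 8 h. Fluorescence (ex/em 790-820 nm) read every 10 min; stability given as F8h/Fo.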

The nature of series [3]: Primary screen of SERS intensities of CyNAMLA-functionalized AuNPs (compact Raman scanner). The settings on record: for Raman intensity: SERS spectra of CyNAMLA-functionalized AuNPs, excitation at 785 nm, laser power 60 mW. The protocol: FIG. 15 is a graph of the comparative surface-enhanced Raman spectroscopy (SERS) intensities of members of the CyNAMLA library measured with an excitation wavelength of 785 nm and a laser power of 60 mW in a compact Raman scanner.
The CyNAMLA compounds were adsorbed onto AuNPs having a diameter of approximately 60 nm, and the SERS properties of the resulting CyNAMLA-functionalized AuNPs were evaluated using a compact Raman scanner. Among metal nanoparticles, AuNPs are particularly suitable for in vivo applications due to their low toxicity, adaptability to bioconjugation, and reproducible signal intensity and quantification.

Series [4] in a line: Characterization of the CyNAMLA library (absorbance maximum wavelengths). To be noted: absorbance maximum wavelength of CyNAMLA library compounds. The protocol:
The amine group of 21 was protected using di-tert-butyl dicarbonate then derivatized with 80 different primary amines (for structures, see FIGS. 14A-14D). After acetylation of the newly-introduced amine, the compounds were treated with a solution of TFA-DCM (1:9) to remove the tert-butylcarbamate protecting group. The deprotected amine was then coupled to lipoic acid to yield CyNAMLA derivatives with an average purity of 90% (for HPLC-determined purities, see Table 6).

The structures appear in SMILES notation.

Consider `CCCN1/C(=C/C=C2\CCCC(/C=C/C3=[N+](CCC)c4ccccc4C3(C)C)=C2N(CCc2ccccc2-c2ccccc2)C(C)=O)C(C)(C)c2ccccc21` [CyNA-599], for which, in series [1] (CyNA library), the “λabs, absorbance maximum wavelength” value was 805 nm and the “λem, fluorescence maximum wavelength” value is on record as 819 nm. In addition, the “φ, quantum yield” value in series [1] (in DMSO, Cardiogreen as standard) turned out to be 0.07. In addition, in series [2], the “max RFU, maximum relative fluorescence units” value turned out to be 105.9.
`CCCN1/C(=C/C=C2\CCCC(/C=C/C3=[N+](CCCNC(=O)CCCCC4CCSS4)c4ccccc4C3(C)C)=C2N(Cc2ccc3c(c2)OCO3)C(C)=O)C(C)(C)c2ccccc21.O=C([O-])C(F)(F)F` (centres unmarked) [CyNAMLA-49]: the Raman intensity in series [3] amounted to 2271. Further, the “λabs (max)” value in series [4] is given as 806 nm.
The matching figures for `CCCCCCCCCCCCCN(C(C)=O)C1=C(/C=C/C2=[N+](CCCNC(=O)CCCCC3CCSS3)c3ccccc3C2(C)C)CCC/C1=C\C=C1\N(CCC)c2ccccc2C1(C)C.O=C([O-])C(F)(F)F` (centres unmarked) [CyNAMLA-55]: 1125 and 805 nm.
Taken in the same sequence, the figures for `CCCN1/C(=C/C=C2\CCCC(/C=C/C3=[N+](CCCNC(=O)CCCCC4CCSS4)c4ccccc4C3(C)C)=C2N(Cc2ccccc2C)C(C)=O)C(C)(C)c2ccccc21.O=C([O-])C(F)(F)F` (centres unmarked) [CyNAMLA-101] were 2102 and 803 nm.
The matching figures for `CCCN1/C(=C/C=C2\CCCC(/C=C/C3=[N+](CCCNC(=O)CCCCC4CCSS4)c4ccccc4C3(C)C)=C2N(Cc2ccccc2OCC)C(C)=O)C(C)(C)c2ccccc21.O=C([O-])C(F)(F)F` (centres unmarked) [CyNAMLA-103]: 6424 and 806 nm.
In series [3], `CCCN1/C(=C/C=C2\CCCC(/C=C/C3=[N+](CCCNC(=O)CCCCC4CCSS4)c4ccccc4C3(C)C)=C2N(C(C)=O)C2CCN(Cc3ccccc3)CC2)C(C)(C)c2ccccc21.O=C([O-])C(F)(F)F` (centres unmarked) [CyNAMLA-107] showed a Raman intensity of 2397. The “λabs (max)” value in series [4] came to 805 nm.
`CCCN1/C(=C/C=C2\CCCC(/C=C/C3=[N+](CCCNC(=O)CCCCC4CCSS4)c4ccccc4C3(C)C)=C2N(Cc2cccc(OC)c2OC)C(C)=O)C(C)(C)c2ccccc21.O=C([O-])C(F)(F)F` (centres unmarked) [CyNAMLA-124]: the Raman intensity in series [3] was determined as 2201. Further, the “λabs (max)” value in series [4] is 804 nm.
The matching figures for `CCCN1/C(=C/C=C2\CCCC(/C=C/C3=[N+](CCCNC(=O)CCCCC4CCSS4)c4ccccc4C3(C)C)=C2N(C(C)=O)C2CCCCC2)C(C)(C)c2ccccc21.O=C([O-])C(F)(F)F` (centres unmarked) [CyNAMLA-164]: 4777 and 803 nm.
The matching figures for `CCCN1/C(=C/C=C2\CCCC(/C=C/C3=[N+](CCCNC(=O)CCCCC4CCSS4)c4ccccc4C3(C)C)=C2N(C(C)=O)C2CCCC2)C(C)(C)c2ccccc21.O=C([O-])C(F)(F)F` (centres unmarked) [CyNAMLA-180]: 8236 and 804 nm.
The molecule `CCCN1/C(=C/C=C2\CCCC(/C=C/C3=[N+](CCCNC(=O)CCCCC4CCSS4)c4ccccc4C3(C)C)=C2N(Cc2ccc(OC)cc2OC)C(C)=O)C(C)(C)c2ccccc21.O=C([O-])C(F)(F)F` (centres unmarked) [CyNAMLA-181] gave a Raman intensity in series [3] of 2109. In addition, the “λabs (max)” value in series [4] is given as 804 nm.
Taken in the same sequence, the figures for `CCCN1/C(=C/C=C2\CCCC(/C=C/C3=[N+](CCCNC(=O)CCCCC4CCSS4)c4ccccc4C3(C)C)=C2N(CCc2cccc(OC)c2OC)C(C)=O)C(C)(C)c2ccccc21.O=C([O-])C(F)(F)F` (centres unmarked) [CyNAMLA-184] were 24133 and 803 nm.
The matching figures for `CCCC(C)N(C(C)=O)C1=C(/C=C/C2=[N+](CCCNC(=O)CCCCC3CCSS3)c3ccccc3C2(C)C)CCC/C1=C\C=C1\N(CCC)c2ccccc2C1(C)C.O=C([O-])C(F)(F)F` (centres unmarked) [CyNAMLA-185]: 4603 and 805 nm.
Taken in the same sequence, the figures for `CCCN1/C(=C/C=C2\CCCC(/C=C/C3=[N+](CCCNC(=O)CCCCC4CCSS4)c4ccccc4C3(C)C)=C2N(Cc2ccc(F)cc2)C(C)=O)C(C)(C)c2ccccc21.O=C([O-])C(F)(F)F` (centres unmarked) [CyNAMLA-218] were 1922 and 804 nm.
On to `CCCCC(CC)CN(C(C)=O)C1=C(/C=C/C2=[N+](CCCNC(=O)CCCCC3CCSS3)c3ccccc3C2(C)C)CCC/C1=C\C=C1\N(CCC)c2ccccc2C1(C)C.O=C([O-])C(F)(F)F` (centres unmarked) [CyNAMLA-230], for which, in series [3], the Raman intensity was 4341. Also, the “λabs (max)” value in series [4] worked out at 804 nm.
On to `CCCN1/C(=C/C=C2\CCCC(/C=C/C3=[N+](CCCNC(=O)CCCCC4CCSS4)c4ccccc4C3(C)C)=C2N(Cc2cc(OC)cc(OC)c2)C(C)=O)C(C)(C)c2ccccc21.O=C([O-])C(F)(F)F` (centres unmarked) [CyNAMLA-262], for which the Raman intensity in series [3] is reported as 27810. Besides, in series [3] (on AuNPs, 785 nm, 60 mW), the “SERS intensity compared to DTTC, primary screen” value is reported as “exceeded the signal of DTTC”. In addition, in series [4], the “λabs (max)” value was determined as 805 nm.
`CCCN1/C(=C/C=C2\CCCC(/C=C/C3=[N+](CCCNC(=O)CCCCC4CCSS4)c4ccccc4C3(C)C)=C2N(CCc2ccc(OC)c(OC)c2)C(C)=O)C(C)(C)c2ccccc21.O=C([O-])C(F)(F)F` (centres unmarked) [CyNAMLA-266] registered a Raman intensity in series [3] of 3013. Moreover, the “λabs (max)” value in series [4] is on record as 806 nm.
Turning to `CCCN1/C(=C/C=C2\CCCC(/C=C/C3=[N+](CCCNC(=O)CCCCC4CCSS4)c4ccccc4C3(C)C)=C2N(CCN2CCCCC2)C(C)=O)C(C)(C)c2ccccc21.O=C([O-])C(F)(F)F` (centres unmarked) [CyNAMLA-272], the Raman intensity in series [3] was found to be 1986. The “λabs (max)” value in series [4] is given as 805 nm.
Taken in the same sequence, the figures for `CCCN1/C(=C/C=C2\CCCC(/C=C/C3=[N+](CCCNC(=O)CCCCC4CCSS4)c4ccccc4C3(C)C)=C2N(CCCOC(C)C)C(C)=O)C(C)(C)c2ccccc21.O=C([O-])C(F)(F)F` (centres unmarked) [CyNAMLA-274] were 6417 and 806 nm.
Taken in the same sequence, the figures for `CCCN1/C(=C/C=C2\CCCC(/C=C/C3=[N+](CCCNC(=O)CCCCC4CCSS4)c4ccccc4C3(C)C)=C2N(C(C)=O)C(C)CCc2ccccc2)C(C)(C)c2ccccc21.O=C([O-])C(F)(F)F` (centres unmarked) [CyNAMLA-275] were 1408 and 804 nm.
Taken in the same sequence, the figures for `CCCCCCCN(C(C)=O)C1=C(/C=C/C2=[N+](CCCNC(=O)CCCCC3CCSS3)c3ccccc3C2(C)C)CCC/C1=C\C=C1\N(CCC)c2ccccc2C1(C)C.O=C([O-])C(F)(F)F` (centres unmarked) [CyNAMLA-277] were 2046 and 804 nm.
In series [3], `CCCN1/C(=C/C=C2\CCCC(/C=C/C3=[N+](CCCNC(=O)CCCCC4CCSS4)c4ccccc4C3(C)C)=C2N(Cc2ccc(OC)c(OC)c2)C(C)=O)C(C)(C)c2ccccc21.O=C([O-])C(F)(F)F` (centres unmarked) [CyNAMLA-319] displayed a Raman intensity of 2850. Besides, the “λabs (max)” value in series [4] came to 805 nm.
Taken in the same sequence, the figures for `CCCN1/C(=C/C=C2\CCCC(/C=C/C3=[N+](CCCNC(=O)CCCCC4CCSS4)c4ccccc4C3(C)C)=C2N(Cc2c(OC)cc(OC)cc2OC)C(C)=O)C(C)(C)c2ccccc21.O=C([O-])C(F)(F)F` (centres unmarked) [CyNAMLA-336] were 2548 and 805 nm.
Consider `CCCN1/C(=C/C=C2\CCCC(/C=C/C3=[N+](CCCNC(=O)CCCCC4CCSS4)c4ccccc4C3(C)C)=C2N(Cc2cccc(Br)c2)C(C)=O)C(C)(C)c2ccccc21.O=C([O-])C(F)(F)F` (centres unmarked) [CyNAMLA-341], for which the Raman intensity in series [3] worked out at 1071. Moreover, the “λabs (max)” value in series [4] is given as 804 nm.
The matching figures for `CCCN1/C(=C/C=C2\CCCC(/C=C/C3=[N+](CCCNC(=O)CCCCC4CCSS4)c4ccccc4C3(C)C)=C2N(Cc2cc(OC)c(OC)c(OC)c2)C(C)=O)C(C)(C)c2ccccc21.O=C([O-])C(F)(F)F` (centres unmarked) [CyNAMLA-356]: 2333 and 806 nm.
For `CCCN1/C(=C/C=C2\CCCC(/C=C/C3=[N+](CCCNC(=O)CCCCC4CCSS4)c4ccccc4C3(C)C)=C2N(Cc2ccc(OC)cc2OC)C(C)=O)C(C)(C)c2ccccc21.O=C([O-])C(F)(F)F` (centres unmarked) [CyNAMLA-358], the Raman intensity in series [3] is given as 1121. The “λabs (max)” value in series [4] is given as 804 nm.
`CCCCN(C(C)=O)C1=C(/C=C/C2=[N+](CCCNC(=O)CCCCC3CCSS3)c3ccccc3C2(C)C)CCC/C1=C\C=C1\N(CCC)c2ccccc2C1(C)C.O=C([O-])C(F)(F)F` (centres unmarked) [CyNAMLA-373]: in series [3], the Raman intensity came out at 2487. Also, the “λabs (max)” value in series [4] came out at 804 nm.
As for `CCCN1/C(=C/C=C2\CCCC(/C=C/C3=[N+](CCCNC(=O)CCCCC4CCSS4)c4ccccc4C3(C)C)=C2N(CC2CCCCC2)C(C)=O)C(C)(C)c2ccccc21.O=C([O-])C(F)(F)F` (centres unmarked) [CyNAMLA-382], the Raman intensity in series [3] turned out to be 7947. Further, the “λabs (max)” value in series [4] is on record as 804 nm.
Take `CCCN1/C(=C/C=C2\CCCC(/C=C/C3=[N+](CCCNC(=O)CCCCC4CCSS4)c4ccccc4C3(C)C)=C2N(Cc2cccc(OC)c2)C(C)=O)C(C)(C)c2ccccc21.O=C([O-])C(F)(F)F` (centres unmarked) [CyNAMLA-387]: in series [3], the Raman intensity is 3910. Also, the “λabs (max)” value in series [4] is given as 804 nm.
